Experimental data published in PubChem BioAssay AID493108 (The Scripps Research Institute Molecular Screening Center, 2011).
The source made the active and inactive calls. No rule for the calls is given here.

Legend:
Test in all cases: in situ serine hydrolase inhibition, LYPLA1/LYPLA2/ABHD11 – cell-based, gel-based ABPP, fluorescence, late-stage follow-up (AID 493108)
Settings in all cases: cells, competitive ABPP fluorescence gel, at 0.03 µM, active compounds read high
ABHD11 = tested on: ABHD11
LYPLA1 = tested on: LYPLA1
LYPLA2 = tested on: LYPLA2

Row | inhibition (ABHD11) [%] | inhibition (LYPLA1) | inhibition (LYPLA2) | SMILES
1 | 100 | 0% (inactive) | 0% (inactive) | CCC1CCCCN1C(=O)n1ncc(C(O)(c2ccccc2)c2ccccc2)n1 (centres undefined)
2 | 100 | 100% | 100% | CC(C)(O)c1cnn(C(=O)N2CCC(C(C)(C)C)CC2)n1
3 | 100 | 100% | 100% | CC(C)(C)C1CCN(C(=O)n2ncc(C(O)(c3ccccc3)c3ccccc3)n2)CC1
